According to PubChem BioAssay (NCI):
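Abbreviation: GI50, concentration required for 50% inhibition of growth. At the TGI there is no net growth.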

Assays:
Assay in all cases: DTP human tumour cell line panel, 384-well format
[1] = tested on: OVCAR-8 ovarian
[2] = tested on: HOP-62 NSCLC
[3] = tested on: SW-620 colon
[4] = tested on: OVCAR-4 ovarian
[5] = tested on: SN12C renal
[6] = tested on: SF-539 CNS
[7] = tested on: CAKI-1 renal
[8] = tested on: CCRF-CEM leukemia
[9] = tested on: SNB-75 CNS
[10] = tested on: SR leukemia
[11] = tested on: NCI-H322M lung
[12] = tested on: MOLT-4 leukemia
[13] = tested on: LOX IMVI melanoma
[14] = tested on: U251 glioblastoma
[15] = tested on: NCI-H226 lung
[16] = tested on: NCI-H522 lung
[17] = tested on: A498 renal
[18] = tested on: SNB-19 CNS
[19] = tested on: HCC-2998 colon
[20] = tested on: A549 NSCLC
[21] = tested on: SF-295 CNS
[22] = tested on: HS 578T breast
[23] = tested on: IGROV1 ovarian
[24] = tested on: HCT-15 colon
[25] = tested on: NCI-H460 NSCLC
[26] = tested on: MDA-MB-435 melanoma
[27] = tested on: K-562 leukemia
[28] = tested on: M14 melanoma
[29] = tested on: BT-549 breast

Q: Which results are given for `CCC[C@H](N[C@H]1CCc2cc(F)cc(F)c2C1)C(=O)Nc1cn(C(C)(C)CNCC(C)(C)C)cn1`?
A: GI50 [1]: 22.3 µM; TGI [1]: > 100 µM; GI50 [2]: 17.7 µM; TGI [2]: 51.2 µM; GI50 [3]: 21.4 µM; TGI [3]: 42.2 µM; GI50 [4]: 13.8 µM; TGI [4]: 61.9 µM; GI50 [5]: 33.1 µM; TGI [5]: > 100 µM; GI50 [6]: 18 µM; TGI [6]: 32.1 µM; GI50 [7]: 14.2 µM; TGI [7]: 31.6 µM; GI50 [8]: 6.62 µM; TGI [8]: 20 µM; GI50 [9]: 19.4 µM; TGI [9]: 71 µM; GI50 [10]: 3.71 µM; TGI [10]: 15.4 µM; GI50 [11]: 26.3 µM; TGI [11]: 92.6 µM; GI50 [12]: 3.46 µM; TGI [12]: 15 µM; GI50 [13]: 17.3 µM; TGI [13]: 31.3 µM; GI50 [14]: 17.3 µM; TGI [14]: 33.1 µM; GI50 [15]: 15.6 µM; TGI [15]: 40.4 µM; GI50 [16]: 18.4 µM; TGI [16]: 48.4 µM; GI50 [17]: 11.7 µM; TGI [17]: 26.6 µM; GI50 [18]: 21.9 µM; TGI [18]: 67.3 µM; GI50 [19]: 7.48 µM; TGI [19]: 21.6 µM; GI50 [20]: 22.2 µM; TGI [20]: > 100 µM; GI50 [21]: 14.6 µM; TGI [21]: 30.2 µM; GI50 [22]: 13 µM; TGI [22]: 31.7 µM; GI50 [23]: 25.9 µM; TGI [23]: > 100 µM; GI50 [24]: 12 µM; TGI [24]: 25.6 µM; GI50 [25]: 15.1 µM; TGI [25]: 29.4 µM; GI50 [26]: 20.7 µM; TGI [26]: 61.2 µM; GI50 [27]: 5.58 µM; TGI [27]: 17 µM; GI50 [28]: 14.1 µM; TGI [28]: 27.9 µM; GI50 [29]: 6.44 µM; TGI [29]: 26.2 µM
